Laboratory results as given in US8148391B2 (Cephalon, Inc., priority 2006, dated 2012).
Like-named read-outs stand apart in the source and are kept apart here. Each block holds one compound with its values, some of them ahead of it.

Columns and labels:
[1] = target: T1, baculovirus-expressed ALK (Homo sapiens, UniProt Q9UM73); experiment: ALK Kinase Assay (ELISA-type, time-resolved fluorescence); type: biochemical
T1 construct: host or cells: baculovirus expression system
How it was run: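 Substrate coating: phospholipase C-γ, 10 μg/mL in TBS. Kinase step: 30 ng/ml ALK, 15 min, 37° C. Detection and analysis: Eu-N1 PT66 antibody, with IC50 fitted as a sigmoidal variable-slope dose-response curve.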

[2] = target: T2, c-Met (cytoplasmic domain) (Homo sapiens, UniProt P08581); experiment: c-Met Kinase Assay (same methods as for ALK, with modifications); type: biochemical
T2 construct: 10 ng/mL c-Met (cytoplasmic domain, Invitrogen Corporation #PV3143); purchased Invitrogen Corporation PV3143
T2 sequence (P08581 956-1390 limits assumed): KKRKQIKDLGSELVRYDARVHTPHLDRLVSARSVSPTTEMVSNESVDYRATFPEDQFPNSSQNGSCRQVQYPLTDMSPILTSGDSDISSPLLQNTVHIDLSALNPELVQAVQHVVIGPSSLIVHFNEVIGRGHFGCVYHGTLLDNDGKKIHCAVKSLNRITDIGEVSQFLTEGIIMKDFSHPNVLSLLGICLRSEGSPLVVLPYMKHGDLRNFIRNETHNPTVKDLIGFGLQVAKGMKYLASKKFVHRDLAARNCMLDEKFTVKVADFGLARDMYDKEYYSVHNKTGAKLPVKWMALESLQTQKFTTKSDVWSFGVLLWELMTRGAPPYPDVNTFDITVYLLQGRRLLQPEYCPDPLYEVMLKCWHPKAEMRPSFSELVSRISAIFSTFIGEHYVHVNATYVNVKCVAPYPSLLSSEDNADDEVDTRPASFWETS
How it was run: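 This plate-based kinase format uses immobilized phospholipase C-γ as substrate, phosphorylated by c-Met cytoplasmic domain (10 ng/mL) at 37° C for 15 minutes.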

[3] = 1 μM ATP (Km level), 30 ng/ml ALK, 37° C., 15 minutes, read-out: ALK Activity (ALK kinase inhibition, IC50 class)
[4] = 1 μM ATP (Km level), 10 ng/mL c-Met, read-out: cMet Activity (c-Met kinase inhibition, IC50 class)
[5] = ALK kinase inhibition, 1 μM ATP, read-out: ALK Activity
[6] = c-Met kinase inhibition, 1 μM ATP, read-out: cMet Activity
[7] = 1 μM ATP (Km level), read-out: ALK Activity (ALK Kinase Inhibition, IC50)
[8] = 1 μM ATP (Km level), read-out: cMet Activity (c-Met Kinase Inhibition, IC50)
[9] = ALK kinase inhibition, 1 μM ATP (Km level), read-out: ALK Activity
[10] = c-Met kinase inhibition, 1 μM ATP (Km level), read-out: cMet Activity

T1 sequence (Q9UM73 19-1620): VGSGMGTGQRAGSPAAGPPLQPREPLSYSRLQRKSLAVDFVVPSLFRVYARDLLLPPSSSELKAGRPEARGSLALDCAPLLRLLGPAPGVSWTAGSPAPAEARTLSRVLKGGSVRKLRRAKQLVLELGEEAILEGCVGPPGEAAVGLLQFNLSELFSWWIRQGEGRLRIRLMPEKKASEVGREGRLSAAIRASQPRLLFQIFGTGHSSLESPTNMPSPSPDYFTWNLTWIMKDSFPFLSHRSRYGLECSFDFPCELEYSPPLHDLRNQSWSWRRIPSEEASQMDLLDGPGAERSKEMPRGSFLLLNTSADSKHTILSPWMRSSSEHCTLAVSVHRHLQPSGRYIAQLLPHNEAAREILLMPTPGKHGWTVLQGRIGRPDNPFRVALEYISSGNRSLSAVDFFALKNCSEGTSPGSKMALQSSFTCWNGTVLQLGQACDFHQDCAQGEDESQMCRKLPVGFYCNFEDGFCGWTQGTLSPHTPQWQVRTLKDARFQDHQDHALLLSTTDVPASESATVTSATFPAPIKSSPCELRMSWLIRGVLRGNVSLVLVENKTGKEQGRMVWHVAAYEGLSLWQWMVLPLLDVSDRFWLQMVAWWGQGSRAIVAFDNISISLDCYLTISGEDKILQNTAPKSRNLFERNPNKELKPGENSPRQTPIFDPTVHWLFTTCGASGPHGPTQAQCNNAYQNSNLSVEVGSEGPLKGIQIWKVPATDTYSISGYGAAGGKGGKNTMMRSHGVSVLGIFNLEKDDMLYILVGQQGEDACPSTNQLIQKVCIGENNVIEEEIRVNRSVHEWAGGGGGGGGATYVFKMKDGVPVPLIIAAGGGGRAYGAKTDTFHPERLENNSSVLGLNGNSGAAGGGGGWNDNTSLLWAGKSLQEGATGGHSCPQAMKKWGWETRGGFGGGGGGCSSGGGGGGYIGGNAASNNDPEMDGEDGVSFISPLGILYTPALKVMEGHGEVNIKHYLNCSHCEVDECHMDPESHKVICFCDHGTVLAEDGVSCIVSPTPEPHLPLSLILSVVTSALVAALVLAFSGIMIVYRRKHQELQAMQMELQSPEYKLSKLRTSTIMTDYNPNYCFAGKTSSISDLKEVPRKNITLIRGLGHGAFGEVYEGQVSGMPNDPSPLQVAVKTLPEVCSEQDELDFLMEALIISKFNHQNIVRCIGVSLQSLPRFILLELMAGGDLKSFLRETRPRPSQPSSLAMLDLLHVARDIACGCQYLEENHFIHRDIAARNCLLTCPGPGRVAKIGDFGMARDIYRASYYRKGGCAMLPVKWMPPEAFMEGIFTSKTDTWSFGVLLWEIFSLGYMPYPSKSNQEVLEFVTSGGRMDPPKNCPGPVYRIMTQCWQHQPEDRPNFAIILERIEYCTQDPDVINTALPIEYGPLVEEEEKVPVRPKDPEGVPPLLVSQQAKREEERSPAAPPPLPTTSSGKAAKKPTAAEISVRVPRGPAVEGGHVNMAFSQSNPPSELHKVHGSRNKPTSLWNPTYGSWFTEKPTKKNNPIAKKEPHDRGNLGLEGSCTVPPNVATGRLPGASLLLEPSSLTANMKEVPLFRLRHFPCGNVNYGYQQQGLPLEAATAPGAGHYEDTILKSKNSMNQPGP

SMILES: Clc1cnc(Nc2ccc3c(c2)CCC(N2CCOCC2)CC3)nc1Nc1ccccc1-n1cccn1 (stereo not drawn) [Example 1034, 5-Chloro-N*2*-(7-morpholin-4-yl-6,7,8,9-tetrahydro-5H-benzocyclohepten-2-yl)-N*4*-(2-pyrazol-1-yl-phenyl)-pyrimidine-2,4-diamine]
IC50 [1, 3]: < 0.1 µM | IC50 [2, 4]: 0.1 to 1 µM

SMILES: CNC(=O)c1cccc(F)c1Nc1nc(Nc2ccc3c(c2)NCCCC3(C)C)ncc1Cl [Example 1611, 2-[5-Chloro-2-(5,5-dimethyl-2,3,4,5-tetrahydro-1H-benzo[b]azepin-8-ylamino)-pyrimidin-4-ylamino]-3-fluoro-N-methyl-benzamide]
IC50 [1, 5]: 0.1 to 1 µM | IC50 [2, 6]: < 0.1 µM

SMILES: CC(=O)N1CCC(=O)NCc2cc(Nc3ncc(Cl)c(Nc4ccccc4OCC#N)n3)ccc21 [Example 1231, {2-[2-(1-Acetyl-4-oxo-1,2,3,4,5,6-hexahydro-benzo[b][1,5]diazocin-8-ylamino)-5-chloro-pyrimidin-4-ylamino]-phenoxy}-acetonitrile]
IC50 [1, 3]: < 0.1 µM | IC50 [2, 4]: < 0.1 µM

SMILES: CCOC(=O)N1C2CCC1c1cc(Nc3ncc(Cl)c(Nc4ccccc4C(=O)NC)n3)c(Cl)cc1C2 (stereo not drawn) [Example 74, 5-Chloro-4-[5-chloro-4-(2-methylcarbamoyl-phenylamino)-pyrimidin-2-ylamino]-12-aza-tricyclo[7.2.1.0*2,7*]dodeca-2(7),3,5-triene-12-carboxylic acid ethyl ester]
IC50 [1, 9]: 0.1 to 1 µM | IC50 [2, 10]: > 10 µM

SMILES: CNS(=O)(=O)c1ccccc1Nc1nc(Nc2cccc3c2N(C)CCN(C)C3=O)ncc1Cl [Example 543, 2-[5-Chloro-2-(1,4-dimethyl-5-oxo-2,3,4,5-tetrahydro-1H-benzo[e][1,4]diazepin-9-ylamino)-pyrimidin-4-ylamino]-N-methyl-benzenesulfonamide]
IC50 [1, 7]: 1 to 10 µM | IC50 [2, 8]: > 10 µM

SMILES: CC1CNC(=O)c2c(Nc3ncc(Cl)c(N[C@@H]4CCCC[C@H]4NS(C)(=O)=O)n3)cccc2N1C(=O)C(F)(F)F (stereo partly drawn) [Example 231, N-((1R,2R)-2-{5-Chloro-2-[2-methyl-5-oxo-1-(2,2,2-trifluoro-acetyl)-2,3,4,5-tetrahydro-1H-benzo[e][1,4]diazepin-6-ylamino]-pyrimidin-4-ylamino}-cyclohexyl)-methanesulfonamide]
IC50 [1, 9]: 0.1 to 1 µM | IC50 [2, 10]: 1 to 10 µM

SMILES: CNC(=O)c1ccccc1Nc1nc(Nc2ccc3c(c2)CCC(F)(F)CC3)ncc1Cl [Example 180, 2-[5-Chloro-2-(7,7-difluoro-6,7,8,9-tetrahydro-5H-benzocyclohepten-2-ylamino)-pyrimidin-4-ylamino]-N-methyl-benzamide]
IC50 [1, 9]: < 0.1 µM | IC50 [2, 10]: 0.1 to 1 µM

SMILES: C=CCOc1cc(N(C)C)cc(F)c1Nc1nc(Nc2ccc3c(c2)CCOC(=O)N3C)ncc1Cl [Example 1709, 2-[4-(2-Allyloxy-4-dimethylamino-6-fluoro-phenylamino)-5-chloro-pyrimidin-2-ylamino]-5-methyl-8,9-dihydro-5H-7-oxa-5-aza-benzocyclohepten-6-one]
IC50 [1, 5]: < 0.1 µM | IC50 [2, 6]: 0.1 to 1 µM

SMILES: CNC(=O)c1ccccc1Nc1nc(Nc2ccc3c(c2)CN(CCO)CCS3)ncc1Cl [Example 528, 2-{5-Chloro-2-[8-(hydroxyl-ethyl)-6,7,8,9-tetrahydro-5-thia-8-aza-benzoylcyclohepten-2-ylamino]-pyrimidin-4-ylamino}-N-methyl-benzamide]
IC50 [1, 7]: < 0.1 µM | IC50 [2, 8]: < 0.1 µM

SMILES: CNC(=O)c1cccc(F)c1Nc1nc(Nc2ccc3c(c2)CNC(=O)CCN3C(C)=O)ncc1Cl [Example 1224, 2-[2-(1-Acetyl-4-oxo-1,2,3,4,5,6-hexahydro-benzo[b][1,5]diazocin-8-ylamino)-5-chloro-pyrimidin-4-ylamino]-3-fluoro-N-methyl-benzamide]
IC50 [1, 3]: < 0.1 µM | IC50 [2, 4]: < 0.1 µM

SMILES: CCC(C)N1C2CCC1c1cc(Nc3ncc(Cl)c(N[C@@H]4CCCC[C@H]4NS(C)(=O)=O)n3)ccc1C2 (mixture of isomers) [Example 84, N-{(1R,2R)-2-[2-(12-sec-Butyl-12-aza-tricyclo[7.2.1.0*2,7*]dodeca-2(7),3,5-trien-4-ylamino)-5-chloro-pyrimidin-4-ylamino]-cyclohexyl}-methanesulfonamide]
IC50 [1, 9]: < 0.1 µM | IC50 [2, 10]: 0.1 to 1 µM

SMILES: NC(=O)c1cccc(F)c1Nc1nc(Nc2ccc3c(c2)NC(=O)CCC3)ncc1Cl [Example 1256, 2-[5-Chloro-2-(2-oxo-2,3,4,5-tetrahydro-1H-1-benzazepin-8-ylamino)-pyrimidin-4-ylamino]-3-fluoro-benzamide]
IC50 [1, 3]: 0.1 to 1 µM | IC50 [2, 4]: 1 to 10 µM

SMILES: C#CCNC(=O)c1sccc1Nc1nc(Nc2ccc3c(c2)OCCCN3C(=O)OCCCN(C)C)ncc1Cl [Example 1429, 3-[5-Chloro-4-(2-prop-2-ynylcarbamoyl-thiophen-3-ylamino)-pyrimidin-2-ylamino]-7,8-dihydro-6H-5-oxa-9-aza-benzocycloheptene-9-carboxylic acid 3-dimethylamino-propyl ester]
IC50 [1, 3]: 0.1 to 1 µM | IC50 [2, 4]: 0.1 to 1 µM

SMILES: COc1ccccc1Nc1nc(Nc2cccc3c2OCCCC3)ncc1Cl [Example 864, 5-Chloro-N*4*-(2-methoxy-phenyl)-N*2*-(2,3,4,5-tetrahydrobenzo[b]oxepin-9-yl)-pyrimidine-2,4-diamine]
IC50 [1, 7]: 1 to 10 µM | IC50 [2, 8]: > 10 µM

SMILES: CS(=O)(=O)N[C@@H]1CCCC[C@H]1Nc1nc(Nc2cc(F)cc3c2OCCNC3=O)ncc1Cl [Example 1683, N-{(1R,2R)-2-[5-Chloro-2-(7-fluoro-5-oxo-2,3,4,5-tetrahydro-benzo[f][1,4]oxazepin-9-ylamino)-pyrimidin-4-ylamino]-cyclohexyl}-methanesulfonamide]
IC50 [1, 5]: 0.1 to 1 µM | IC50 [2, 6]: > 10 µM

The next lines start with the values.

IC50 [1, 3]: < 0.1 µM | IC50 [2, 4]: > 10 µM
SMILES: COCC(COC)N1CCc2cc(Nc3ncc(Cl)c(Nc4ccc(C(N)=O)cc4OC)n3)c(OC)cc2CC1 [Example 1153, 4-{5-Chloro-2-[8-methoxy-3-(2-methoxy-1-methoxymethyl-ethyl)-2,3,4,5-tetrahydro-1H-benzo[d]azepin-7-ylamino]-pyrimidin-4-ylamino}-3-methoxy-benzamide]

IC50 [1, 7]: < 0.1 µM | IC50 [2, 8]: > 10 µM
SMILES: COCCNC1CCc2cc(Nc3ncc(Cl)c(N[C@@H]4CCCC[C@H]4NS(C)(=O)=O)n3)c(OC)cc2CC1 (stereo partly drawn) [Example 895, N-((1R,2R)-2-{5-Chloro-2-[3-methoxy-7-(2-methoxy-ethylamino)-6,7,8,9-tetrahydro-5H-benzocyclohepten-2-ylamino]-pyrimidin-4-ylamino}-cyclohexyl)-methanesulfonamide]

IC50 [1, 3]: < 0.1 µM | IC50 [2, 4]: > 10 µM
SMILES: COc1cc2c(cc1Nc1ncc(Cl)c(N[C@H]3[C@@H](C(N)=O)[C@@H]4C=C[C@H]3C4)n1)CCC(NCCO)CC2 (single isomer, unassigned) [Example 1096]

IC50 [1, 7]: < 0.1 µM | IC50 [2, 8]: > 10 µM
SMILES: COc1cc2c(cc1Nc1ncc(Cl)c(Nc3ccccc3S(=O)(=O)N(C)C)n1)CCN(C(=O)C1COCCO1)CC2 (stereo not drawn) [Example 634, 2-{5-Chloro-2-[3-([1,4]dioxane-2-carbonyl)-8-methoxy-2,3,4,5-tetrahydro-1H-benzo[d]azepin-7-ylamino]-pyrimidin-4-ylamino}-N,N-dimethyl-benzenesulfonamide]

IC50 [1, 3]: 0.1 to 1 µM | IC50 [2, 4]: 1 to 10 µM
SMILES: COc1cc2c(cc1Nc1ncc(Cl)c(Nc3cc(C(N)=O)ccc3OC)n1)CCN(CC(=O)N(C)C)CC2 [Example 1136, 3-[5-Chloro-2-(3-dimethylcarbamoylmethyl-8-methoxy-2,3,4,5-tetrahydro-1H-benzo[d]azepin-7-ylamino)-pyrimidin-4-ylamino]-4-methoxy-benzamide]

IC50 [1, 3]: < 0.1 µM | IC50 [2, 4]: 0.1 to 1 µM
SMILES: CCOC(=O)c1ccccc1Nc1nc(Nc2ccc3c(c2)CCN(CCOC)CC3)ncc1Cl [Example 1395, {5-Chloro-2-[3-(2-methoxy-ethyl)-2,3,4,5-tetrahydro-1H-benzo[d]azepin-7-ylamino]-pyrimidin-4-ylamino}-benzoic acid ethyl ester]

IC50 [1, 5]: < 0.1 µM | IC50 [2, 6]: > 10 µM
SMILES: COc1cc2c(cc1Nc1ncc(Cl)c(N[C@H]3[C@@H](C(N)=O)[C@@H]4C=C[C@H]3C4)n1)CCN(C[C@H](C)O)CC2 [Example 1558, (1S,2S,3R,4R)-3-{5-Chloro-2-[3-((S)-2-hydroxy-propyl)-8-methoxy-2,3,4,5-tetrahydro-1H-3-benzazepin-7-ylamino]-pyrimidin-4-ylamino}-bicyclo[2.2.1]hept-5-ene-2-carboxylic acid amide]

IC50 [1, 9]: 1 to 10 µM | IC50 [2, 10]: > 10 µM
SMILES: CCN1C(=O)CCCc2c1ccc(Nc1ncc(Cl)c(N[C@@H]3[C@H](C(N)=O)[C@H]4C=C[C@@H]3C4)n1)c2OC [Example 132, (1R,2R,3S,4S)-3-[5-Chloro-2-(1-ethyl-6-methoxy-2-oxo-2,3,4,5-tetrahydro-1H-benzo[b]azepin-7-ylamino)-pyrimidin-4-ylamino]-bicyclo[2.2.1]hept-5-ene-2-carboxylic acid amide]

IC50 [1, 7]: < 0.1 µM | IC50 [2, 8]: > 10 µM
SMILES: COCCN1CCc2cc(Nc3ncc(Cl)c(NC4C5C=CC(C5)C4C(=O)N(C)C)n3)c(OC)cc2CC1 (stereo not drawn) [Example 606, (2-exo-3-exo)-3-{5-Chloro-2-[8-methoxy-3-(2-methoxy-ethyl)-2,3,4,5-tetrahydro-1H-benzo[d]azepin-7-ylamino]-pyrimidin-4-ylamino}-bicyclo[2.2.1]hept-5-ene-2-carboxylic acid dimethylamide]
